Assay results from patent US11613560B2, “Bicyclic peptide ligands specific for OX40” (BicycleTx Limited, priority 2019, dated 2023).

Target: T1, OX40 (Homo sapiens, UniProt P43489)
T1 construct: host or cells: OX40 Jurkat cells (NF-kB luciferase reporter)
T1 sequence (P43489 29-277): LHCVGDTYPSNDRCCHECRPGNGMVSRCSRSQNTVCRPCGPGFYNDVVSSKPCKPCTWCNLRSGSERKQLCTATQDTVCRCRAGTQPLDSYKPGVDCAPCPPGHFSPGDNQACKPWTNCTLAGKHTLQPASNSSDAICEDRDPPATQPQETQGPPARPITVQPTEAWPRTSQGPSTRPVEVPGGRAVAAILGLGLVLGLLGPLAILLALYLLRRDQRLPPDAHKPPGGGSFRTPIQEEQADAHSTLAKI
Experiment: Promega OX40 cell-activity assay in co-culture with tumor cells (Nectin-4 positive 4T1-D02)
Type: cell-based
Settings: co-culture with Nectin-4 positive 4T1-D02 cells; compared to OX40L and non-binding control BCY12968
Description: Promega have developed an OX40 cell-activity assay that uses NF-κB luciferase luminescence as a read-out of OX40 activation in Jurkat cells (Promega CS197704). On the day of the experiment, prepare medium by thawing FBS and adding 5% FBS to RPMI-1640. Thaw OX40 Jurkat cells in the water-bath and then add 500 μl cells to 11.5 ml pre-warmed 5 FBS RPMI-1640 medium. Add 55 μl cells/well to white cell culture plates. Harvest tumor cells from culture. 4T1 is a Nectin-4 negative murine mammary gland epithelial cancer cell and it was genetically modified to express murine Nectin-4 on the cell surface (4T1 Nectin-4 positive; clone 4T1-D02). Tumor cells were cultured to 80% confluency in vitro in RPMI1640 medium supplemented with 10% heat-inactivated FBS, 1× Penicillin/Streptomycin, 1×L-Glutamine, 20 mM HEPES and 1×NEAA (RPMI working medium). Tumor cells were trypsinized and washed two times at 1500 rpm for 5 minutes in RPMI1640 working medium prewarmed to 37° C. Count cells and resuspend at 2,000,000 cells/mL in R5 media (for 10,000 cells/well). Add 5 μL of tumour cells per well.
Proceed to dilute agonists at concentration giving the maximum fold induction and then titrate down the amount in a sterile 96 well-plate. Prepare enough reagent for duplicate samples and then perform ⅓ dilution series or 1/10 dilution series. Include positive control OX40L trimer (AcroBiosystems, R&D systems) and negative control monomeric or non-binding peptides. Add 20 μl of agonist as duplicate samples or 5% FBS RPMI-1640 alone as background control.
Co-incubate cells together with agonists for 6 hours at 37° C., 5% CO2. After 6 hours, thaw Bio-Glo™ and develop the assay at room-temperature. Add 80 μl Bio-Glo™ per well and incubate 5-10 min. Read luciferase signal on CLAIROStar plate-reader using the MARS program and normalize the fold induction relative to background (medium alone). Analyse data by transforming the data to x=log (X), then plot log (agonist) vs. response variable slope (4 parameters) to calculate EC50 values.

## CSCC[C@@H]1NC(=O)[C@@H]2CSCCC(=O)N3CN(CN(C3)C(=O)CCSC[C@H](NC(=O)CCOCCOCCOCCOCCOCCn3cc(CCC(=O)NCCCC[C@H](NC(=O)[C@H](C)NC(=O)[C@@H]4CSCCC(=O)N5CN6CN(C5)C(=O)CCSC[C@H](NC(=O)[C@@H]5CCCN5C(=O)[C@H](CO)NC(=O)[C@H](Cc5ccc(O)cc5)NC(=O)[C@H](CC(C)C)NC(=O)[C@@H](NC(=O)[C@H](C)NC(C)=O)CSCCC6=O)C(=O)N[C@@H](Cc5c[nH]c6ccccc56)C(=O)N[C@@H](Cc5c[nH]cn5)C(=O)N5CCC[C@H]5C(=O)N[C@@H](CC(C)C)C(=O)N[C@@H](CC(N)=O)C(=O)N[C@@H](CC(=O)O)C(=O)N4)C(N)=O)nn3)C(=O)N3CCC[C@H]3C(=O)N[C@@H](Cc3cccc4ccccc34)C(=O)N[C@H](CC(=O)O)C(=O)N2)C(=O)CCSC[C@@H](C(N)=O)NC(=O)[C@H](Cc2c[nH]c3ccccc23)NC(=O)[C@@H]2C[C@@H](O)CN2C(=O)[C@@H]2CCCN2C(=O)[C@H]([C@@H](C)O)NC(=O)[C@H](CO)NC(=O)[C@H](Cc2c[nH]c3ccccc23)NC(=O)[C@H](CC(=O)O)NC(=O)[C@H](CCCCNC(=N)N)NC1=O [BCY12721]
  OX40 agonism in co-culture: potent OX40 agonism

## CSCC[C@@H]1NC(=O)[C@@H]2CSCCC(=O)N3CN(CN(C3)C(=O)CCSC[C@H](NC(=O)CCOCCOCCOCCN(CCOCCOCCOCCn3cc(CCC(=O)NCCCC[C@H](NC(=O)[C@H](C)NC(=O)[C@@H]4CSCCC(=O)N5CN6CN(C5)C(=O)CCSC[C@H](NC(=O)[C@@H]5CCCN5C(=O)[C@H](CO)NC(=O)[C@H](Cc5ccc(O)cc5)NC(=O)[C@H](CC(C)C)NC(=O)[C@@H](NC(=O)[C@H](C)N)CSCCC6=O)C(=O)N[C@@H](Cc5c[nH]c6ccccc56)C(=O)N[C@@H](Cc5c[nH]cn5)C(=O)N5CCC[C@H]5C(=O)N[C@@H](CC(C)C)C(=O)N[C@@H](CC(N)=O)C(=O)N[C@@H](CC(=O)O)C(=O)N4)C(N)=O)nn3)CCOCCOCCOCCn3cc(CCC(=O)NCCCC[C@H](NC(=O)[C@H](C)NC(=O)[C@@H]4CSCCC(=O)N5CN6CN(C5)C(=O)CCSC[C@H](NC(=O)[C@@H]5CCCN5C(=O)[C@H](CO)NC(=O)[C@H](Cc5ccc(O)cc5)NC(=O)[C@H](CC(C)C)NC(=O)[C@@H](NC(=O)[C@H](C)N)CSCCC6=O)C(=O)N[C@@H](Cc5c[nH]c6ccccc56)C(=O)N[C@@H](Cc5c[nH]cn5)C(=O)N5CCC[C@H]5C(=O)N[C@@H](CC(C)C)C(=O)N[C@@H](CC(N)=O)C(=O)N[C@@H](CC(=O)O)C(=O)N4)C(N)=O)nn3)C(=O)N3CCC[C@H]3C(=O)N[C@@H](Cc3cccc4ccccc34)C(=O)N[C@H](CC(=O)O)C(=O)N2)C(=O)CCSC[C@@H](C(N)=O)NC(=O)[C@H](Cc2c[nH]c3ccccc23)NC(=O)[C@@H]2C[C@@H](O)CN2C(=O)[C@@H]2CCCN2C(=O)[C@H]([C@@H](C)O)NC(=O)[C@H](CO)NC(=O)[C@H](Cc2c[nH]c3ccccc23)NC(=O)[C@H](CC(=O)O)NC(=O)[C@H](CCCCNC(=N)N)NC1=O [BCY12967]
  OX40 agonism in co-culture: potent OX40 agonism
